PubChem BioAssay (NCI)
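1) Cells in 96-well plates. 2) Compound, 48 h, 5 concentrations. 3) Linear interpolation between surrounding doses. 4) Unreached endpoint = highest concentration. The concentration for full growth arrest is given as TGI.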

Columns and labels:
Experiment in all cases: DTP human tumour cell line panel, 48 h
[1] = test system: MOLT-4 leukemia
[2] = test system: OVCAR-5 ovarian
[3] = test system: OVCAR-3 ovarian
[4] = test system: HL-60(TB) leukemia
[5] = test system: HCC-2998 colon
[6] = test system: EKVX NSCLC
[7] = test system: SNB-19 CNS
[8] = test system: OVCAR-8 ovarian
[9] = test system: SF-268 CNS
[10] = test system: RXF 393 renal
[11] = test system: U251 CNS
[12] = test system: SK-MEL-28 melanoma
[13] = test system: SW-620 colon
[14] = test system: MCF7 breast
[15] = test system: 786-0 renal
[16] = test system: NCI-H23 lung
[17] = test system: UO-31 renal
[18] = test system: HT29 colon
[19] = test system: A549 NSCLC
[20] = test system: UACC-257 melanoma
[21] = test system: KM12 colon
[22] = test system: DU-145 prostate
[23] = test system: M14 melanoma
[24] = test system: PC-3 prostate
[25] = test system: SF-295 CNS
[26] = test system: ACHN renal
[27] = test system: MDA-N
[28] = test system: SN12C renal
[29] = test system: HCT-15 colon
[30] = test system: UACC-62 melanoma
[31] = test system: HOP-92 NSCLC
[32] = test system: NCI/ADR-RES ovarian
[33] = test system: NCI-H522 lung
[34] = test system: IGROV1 ovarian
[35] = test system: NCI-H460 lung
[36] = test system: SNB-75 CNS
[37] = test system: TK-10 renal
[38] = test system: NCI-H226 lung
[39] = test system: LOX IMVI melanoma
[40] = test system: MALME-3M melanoma
[41] = test system: HS 578T breast
[42] = test system: SF-539 CNS
[43] = test system: SK-OV-3 ovarian
[44] = test system: COLO 205 colon
[45] = test system: OVCAR-4 ovarian
[46] = test system: HCT-116 colon
[47] = test system: MDA-MB-231 breast
[48] = test system: BT-549 breast
[49] = test system: A498 renal
[50] = test system: MDA-MB-435
[51] = test system: T-47D breast
[52] = test system: SK-MEL-5 melanoma
[53] = test system: HOP-62 NSCLC
[54] = test system: SK-MEL-2 melanoma
[55] = test system: SR leukemia
[56] = test system: K-562 leukemia
[57] = test system: CAKI-1 renal
[58] = test system: CCRF-CEM leukemia
[59] = test system: RPMI-8226 leukemia

## COc1cc(OC)c(/C=C\c2cc(/C=C/c3c(OC)cc(OC)cc3OC)c3ccccc3[n+]2C)c(OC)c1
[1]
  TGI: 5.48 µM
[2]
  TGI: 57 µM
[3]
  TGI: 6.17 µM
[4]
  TGI: 5.62 µM
[5]
  TGI: 14.5 µM
[6]
  TGI: 11.4 µM
[7]
  TGI: 40 µM
[8]
  TGI: 5.34 µM
[9]
  TGI: 10.5 µM
[10]
  TGI: 10.9 µM
[11]
  TGI: > 61.4 µM
[12]
  TGI: 10.9 µM
[13]
  TGI: > 36.3 µM
[14]
  TGI: > 39.8 µM
[15]
  TGI: 7.56 µM
[16]
  TGI: 9.25 µM
[17]
  TGI: > 55.4 µM
[18]
  TGI: 5.93 µM
[19]
  TGI: > 41.7 µM
[20]
  TGI: 12.4 µM
[21]
  TGI: 10.4 µM
[22]
  TGI: 20.9 µM
[23]
  TGI: 12.7 µM
[24]
  TGI: 11.5 µM
[25]
  TGI: 10.9 µM
[26]
  TGI: 25.8 µM
[27]
  TGI: 8.19 µM
[28]
  TGI: 9.8 µM
[29]
  TGI: > 47.4 µM
[30]
  TGI: 16.5 µM
[31]
  TGI: 8.08 µM
[32]
  TGI: > 100 µM
[33]
  TGI: 7.58 µM
[34]
  TGI: 38.3 µM
[35]
  TGI: 8.92 µM
[36]
  TGI: 14.2 µM
[37]
  TGI: > 49 µM
[38]
  TGI: 23.6 µM
[39]
  TGI: 18.3 µM
[40]
  TGI: 4.52 µM
[41]
  TGI: 97.9 µM
[42]
  TGI: 5.93 µM
[43]
  TGI: > 48 µM
[44]
  TGI: 6.1 µM
[45]
  TGI: 36.4 µM
[46]
  TGI: > 28.3 µM
[47]
  TGI: 10.2 µM
[48]
  TGI: > 24.7 µM
[49]
  TGI: 14 µM
[50]
  TGI: 6.43 µM
[51]
  TGI: 7.11 µM
[52]
  TGI: 2 µM
[53]
  TGI: 16.3 µM

## COc1ccc2cc(C(=O)O)ccc2c1OC
[1]
  TGI: > 100 µM
[2]
  TGI: > 100 µM
[3]
  TGI: > 100 µM
[4]
  TGI: > 100 µM
[5]
  TGI: > 100 µM
[7]
  TGI: > 100 µM
[8]
  TGI: > 100 µM
[9]
  TGI: > 100 µM
[11]
  TGI: > 100 µM
[13]
  TGI: > 100 µM
[14]
  TGI: > 100 µM
[15]
  TGI: > 100 µM
[16]
  TGI: > 100 µM
[17]
  TGI: > 100 µM
[18]
  TGI: > 100 µM
[19]
  TGI: > 100 µM
[20]
  TGI: > 100 µM
[54]
  TGI: > 100 µM
[21]
  TGI: > 100 µM
[22]
  TGI: > 100 µM
[23]
  TGI: > 100 µM
[24]
  TGI: > 100 µM
[25]
  TGI: > 100 µM
[26]
  TGI: > 100 µM
[27]
  TGI: > 100 µM
[55]
  TGI: > 100 µM
[56]
  TGI: > 100 µM
[28]
  TGI: > 100 µM
[29]
  TGI: > 100 µM
[30]
  TGI: > 100 µM
[32]
  TGI: > 100 µM
[33]
  TGI: > 100 µM
[34]
  TGI: > 100 µM
[35]
  TGI: > 100 µM
[36]
  TGI: > 100 µM
[38]
  TGI: > 100 µM
[40]
  TGI: > 100 µM
[41]
  TGI: > 100 µM
[42]
  TGI: > 100 µM
[43]
  TGI: > 100 µM
[44]
  TGI: > 100 µM
[57]
  TGI: > 100 µM
[46]
  TGI: > 100 µM
[58]
  TGI: > 100 µM
[47]
  TGI: > 100 µM
[48]
  TGI: > 100 µM
[49]
  TGI: > 100 µM
[50]
  TGI: > 100 µM
[51]
  TGI: > 100 µM
[52]
  TGI: > 100 µM
[53]
  TGI: > 100 µM

## O=CNc1ncn[nH]1
[1]
  TGI: > 100 µM
[2]
  TGI: > 100 µM
[3]
  TGI: > 100 µM
[4]
  TGI: > 100 µM
[6]
  TGI: > 100 µM
[7]
  TGI: > 100 µM
[8]
  TGI: > 100 µM
[9]
  TGI: > 100 µM
[10]
  TGI: > 100 µM
[11]
  TGI: > 100 µM
[12]
  TGI: > 100 µM
[13]
  TGI: > 100 µM
[14]
  TGI: > 100 µM
[15]
  TGI: > 100 µM
[16]
  TGI: > 100 µM
[17]
  TGI: > 100 µM
[18]
  TGI: > 100 µM
[59]
  TGI: > 100 µM
[19]
  TGI: > 100 µM
[20]
  TGI: > 100 µM
[54]
  TGI: > 100 µM
[21]
  TGI: > 100 µM
[22]
  TGI: > 100 µM
[23]
  TGI: > 100 µM
[24]
  TGI: > 100 µM
[25]
  TGI: > 100 µM
[26]
  TGI: > 100 µM
[27]
  TGI: > 100 µM
[55]
  TGI: > 100 µM
[56]
  TGI: > 100 µM
[28]
  TGI: > 100 µM
[29]
  TGI: > 100 µM
[30]
  TGI: > 100 µM
[32]
  TGI: > 100 µM
[33]
  TGI: > 100 µM
[34]
  TGI: > 100 µM
[35]
  TGI: > 100 µM
[36]
  TGI: > 100 µM
[37]
  TGI: > 100 µM
[38]
  TGI: > 100 µM
[39]
  TGI: > 100 µM
[40]
  TGI: > 100 µM
[41]
  TGI: > 100 µM
[42]
  TGI: > 100 µM
[43]
  TGI: > 100 µM
[44]
  TGI: > 100 µM
[57]
  TGI: > 100 µM
[45]
  TGI: > 100 µM
[46]
  TGI: > 100 µM
[58]
  TGI: > 100 µM
[47]
  TGI: > 100 µM
[48]
  TGI: > 100 µM
[49]
  TGI: > 100 µM
[50]
  TGI: > 100 µM
[51]
  TGI: > 100 µM
[52]
  TGI: > 100 µM
[53]
  TGI: > 100 µM

## COc1cc(C2C(C#N)=C(N)OC3=C2CCS(=O)(=O)c2ccc(C)cc23)cc(OC)c1OC (stereo not drawn)
[2]
  TGI: > 100 µM
[3]
  TGI: > 100 µM
[4]
  TGI: > 100 µM
[5]
  TGI: > 100 µM
[7]
  TGI: > 100 µM
[8]
  TGI: > 100 µM
[9]
  TGI: > 100 µM
[11]
  TGI: > 100 µM
[12]
  TGI: > 100 µM
[13]
  TGI: > 100 µM
[15]
  TGI: > 100 µM
[16]
  TGI: > 100 µM
[17]
  TGI: > 100 µM
[18]
  TGI: > 100 µM
[59]
  TGI: > 100 µM
[19]
  TGI: > 100 µM
[20]
  TGI: > 100 µM
[54]
  TGI: > 100 µM
[21]
  TGI: > 100 µM
[22]
  TGI: > 100 µM
[23]
  TGI: > 100 µM
[24]
  TGI: > 100 µM
[26]
  TGI: > 100 µM
[27]
  TGI: > 100 µM
[55]
  TGI: > 100 µM
[56]
  TGI: > 100 µM
[28]
  TGI: > 100 µM
[29]
  TGI: > 100 µM
[30]
  TGI: > 100 µM
[31]
  TGI: > 100 µM
[32]
  TGI: > 100 µM
[33]
  TGI: > 100 µM
[34]
  TGI: > 100 µM
[35]
  TGI: > 100 µM
[36]
  TGI: > 100 µM
[37]
  TGI: > 100 µM
[38]
  TGI: > 100 µM
[39]
  TGI: > 100 µM
[40]
  TGI: > 100 µM
[41]
  TGI: > 100 µM
[44]
  TGI: > 100 µM
[57]
  TGI: > 100 µM
[45]
  TGI: > 100 µM
[46]
  TGI: > 100 µM
[58]
  TGI: > 100 µM
[47]
  TGI: > 100 µM
[48]
  TGI: > 100 µM
[49]
  TGI: > 100 µM
[50]
  TGI: > 100 µM
[51]
  TGI: > 100 µM
[52]
  TGI: > 100 µM
[53]
  TGI: > 100 µM
